According to US10758513B2, “Modulators of mitochondrial protein import” (THE REGENTS OF THE UNIVERSITY OF CALIFORNIA, priority 2011, dated 2020):

How the values were obtained:
[1] = tested on: tim10-1 tim9S mitochondria; assay: Membrane potential with rhodamine 123; type: biochemical, yeast; settings: 25 μM MitoBloCK-1; CCCP as control
Procedure: Membrane potential measurement assays were conducted with a SPEX spectrofluorometer system (HORIBA Jobin Yvon) with a magnetically stirred cuvette held at 25° C. The quenching of rhodamine 123 fluorescence (Em, =530 nm and Ex=485 nm) was used as previously described (9) to detect changes in mitochondrial membrane potential. Purified tim10-1 tim9S mitochondrial aliquots were thawed and resuspended in respiration buffer (0.65 M mannitol, 0.3 mM EGTA, 3 mm tris-phosphate, 10 mM tris-maleate, pH 6.75). Trials were started by adding 100 nM of rhodamine 123 to respiration buffer. After a period of signal stabilization, mitochondria were added to a concentration of 100 μg/mL. Either drug or DMSO was then added to a final vehicle concentration of 1% following the establishment of baseline quenched fluorescence. Finally, mitochondria were uncoupled with 3 μM CCCP.

[2] = tested on: tim12-1 mutant mitochondria; assay: In vitro import of AAC into tim12-1 mutant mitochondria; type: biochemical, yeast
Procedure: Prior to import into purified mitochondria, ^35S-methionine and cysteine labeled proteins were generated with TNT Quick Coupled Transcription/Translation kits (Promega) and plasmids carrying the gene of interest. Transcription of genes was driven by either a T7 or SP6 promoter. Import reactions were conducted according to established methods. After frozen mitochondria aliquots were thawed and added to the import buffer at a final concentration of 100 μg/mL, drug or DMSO vehicle was added as indicated. A final vehicle concentration of 1% was used in all experiments. Following 15 minute incubation at 25° C., import reactions were initiated by the addition of […] of translation mix. Aliquots were removed at intervals during the reaction timecourse and import was terminated with either cold buffer, 25 μg/mL trypsin, or a combination of both. If trypsin was added to digest unimported precursor protein, soybean trypsin inhibitor (STI) was subsequently added in excess after 15 minute incubation on ice. After a final recovery of by centrifugation (8,000×g, 5 minutes), mitochondria were disrupted in Laemmli sample buffer. Imports of membrane proteins (AAC, PiC, Tom40, Tim22, and Tim23) included a carbonate extraction step to remove proteins that had not inserted into the membrane (Koehler C M, et al. (1998), Science 279:369-373). […]

NC(=S)N/N=C/c1c(O)c(Br)cc2oc3c(c12)CCCC3 [MitoBloCK-1]
rhodamine 123 fluorescence (membrane potential) [1]: did not change
import of AAC into tim12-1 mutant mitochondria [2]: did not inhibit the import of AAC
